A word on the Ki: it is the equilibrium dissociation constant of an inhibitor or competing ligand from its target. Low values mean higher affinity, high ones lower affinity.

These results are taken from US9688678B2, “Oxindole compounds carrying a nitrogen-bound spiro substituent and use thereof for treating vasopressin-related diseases” (AbbVie Deutschland GmbH & Co. KG, priority 2014, dated 2017).

Each structure is given as a SMILES string. Some results are limits rather than exact numbers.

The target in experiment [1] is human vasopressin V1b receptor (Homo sapiens (Human), UniProt P47901). Kind of experiment: Vasopressin V1b receptor binding assay. To be noted: membranes from CHO-K1 cells, displacement of 3H-AVP. On the procedure:
The test substances were dissolved in a concentration of 5 mM in 100% DMSO and further diluted to 5×10^−4 M to 5×10^−9 M. These serial DMSO predilutions were diluted 1:10 with assay buffer. The substance concentration was further diluted 1:5 in the assay mixture resulting in 2% DMSO in the mixture. All dilutions were performed in a Biomek NX automation workstation (Beckman)
The membrane pellet was again homogenized and centrifuged as described and subsequently taken up in 50 mM Tris-HCl, pH 7.4, homogenized and stored in aliquots frozen in liquid nitrogen at −190° C.
(§1) The incubation buffer was: 50 mM Tris, 10 mM MgCl2, 0.1% BSA, pH 7.4.
All determinations were carried out as duplicate determinations. […] The liquid scintillation measurement took place in a Microbeta TriLux 12 (Wallac). Analysis:
(§2) The binding parameters were calculated by nonlinear regression in SAS.
For orientation: In a radioligand displacement assay an active substance lowers the binding of a labelled ligand.

Experiment [2] addresses human vasopressin V1a receptor (Homo sapiens (Human), UniProt P37288). The experiment is described as follows: Vasopressin V1a receptor binding assay. The note with it: selectivity quotient, human V1a vs human V1b receptor. On the procedure: The test substances were dissolved in a concentration of 5 mM M in DMSO. Further dilution of these DMSO solutions took place as described for V1b.
The membrane pellet was again homogenized in a High-Pressure-Homogenizer, Polytec 50K at 1500 PSI (Heinemann, Germany) and subsequently taken up in 50 mM Tris-HCl, pH 7.4, homogenized and stored in aliquots frozen in liquid nitrogen at −190° C.
as §1
Duplicate determinations were carried out.
After incubation (60 minutes at room temperature), the samples were processed as described for V1b.
as §2

Chain of human vasopressin V1b receptor (P47901 whole entry): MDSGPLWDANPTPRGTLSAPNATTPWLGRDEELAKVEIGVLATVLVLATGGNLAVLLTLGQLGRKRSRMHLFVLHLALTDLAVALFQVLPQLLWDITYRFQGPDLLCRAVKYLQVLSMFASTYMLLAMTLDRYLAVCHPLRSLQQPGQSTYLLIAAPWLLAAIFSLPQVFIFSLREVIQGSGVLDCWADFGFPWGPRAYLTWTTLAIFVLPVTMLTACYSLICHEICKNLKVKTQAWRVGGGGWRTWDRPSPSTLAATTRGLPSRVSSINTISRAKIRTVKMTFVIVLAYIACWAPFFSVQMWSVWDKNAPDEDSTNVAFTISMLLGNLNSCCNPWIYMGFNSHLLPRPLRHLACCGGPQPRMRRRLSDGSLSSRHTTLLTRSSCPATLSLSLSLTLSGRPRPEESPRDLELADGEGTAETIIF
Chain of human vasopressin V1a receptor (P37288 whole entry): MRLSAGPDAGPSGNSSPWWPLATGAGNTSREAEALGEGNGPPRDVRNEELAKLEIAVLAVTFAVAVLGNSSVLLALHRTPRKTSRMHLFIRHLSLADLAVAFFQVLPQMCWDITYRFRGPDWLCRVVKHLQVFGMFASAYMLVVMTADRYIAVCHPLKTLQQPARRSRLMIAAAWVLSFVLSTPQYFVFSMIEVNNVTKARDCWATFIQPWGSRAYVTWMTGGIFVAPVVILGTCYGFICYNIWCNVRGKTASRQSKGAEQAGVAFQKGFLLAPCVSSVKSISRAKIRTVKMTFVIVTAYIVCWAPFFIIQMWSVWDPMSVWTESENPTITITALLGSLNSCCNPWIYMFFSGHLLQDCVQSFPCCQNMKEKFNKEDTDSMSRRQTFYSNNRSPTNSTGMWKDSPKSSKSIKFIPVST

As for `CCOc1ccc(OC)cc1C1(N2CC3(CC(N4CCN(C)CC4)C3)C2)C(=O)N(S(=O)(=O)c2ccc(OC)cn2)c2ccc(C#N)cc21` (racemic) [Example 17, (±)-3-(2-ethoxy-5-methoxy-phenyl)-1-[(5-methoxy-2-pyridyl)sulfonyl]-3-[2-(4-methylpiperazin-1-yl)-6-azaspiro[3.3]heptan-6-yl]-2-oxo-indoline-5-carbonitrile], in experiment [1], the Ki is less than 1 nM. For the same molecule, in experiment [2], the “Ki(h-V1a)/ Ki(h-V1b)” value is on record as “+++ (>75)”.
The like results for `COc1ccc(S(=O)(=O)N2C(=O)C(c3ccccc3OC)(N3CC4(CN(C5CCN(C)CC5)C4)C3)c3cc(C#N)ccc32)nc1` (racemic) [Example 18, (±)3-(2-methoxyphenyl)-1-[(5-methoxy-2-pyridyl)sulfonyl]-3-[2-(1-methyl-4-piperidyl)-2,6-diazaspiro[3.3]heptan-6-yl]-2-oxo-indoline-5-carbonitrile] were, in that order, less than 1 nM and “+++ (>75)”.
In the same order, the values of `CCOc1ccc(OC)cc1C1(N2CC3(CN(C4CCN(C(C)C)CC4)C3)C2)C(=O)N(S(=O)(=O)c2ccc(OC)cn2)c2ccc(C#N)cc21` (racemic) [Example 19, (±)-3-(2-ethoxy-5-methoxy-phenyl)-3-[2-(1-isopropyl-4-piperidyl)-2,6-diazaspiro[3.3]heptan-6-yl]-1-[(5-methoxy-2-pyridyl)sulfonyl]-2-oxo-indoline-5-carbonitrile] are less than 1 nM and “+++ (>75)”.
The like results for `CCOc1ccc(OC)cc1C1(N2CC3(CN(C4CCN(CCOC)CC4)C3)C2)C(=O)N(S(=O)(=O)c2ccc(OC)cn2)c2ccc(C#N)cc21` (racemic) [Example 20, (±)-3-(2-ethoxy-5-methoxy-phenyl)-3-[2-[1-(2-methoxyethyl)-4-piperidyl]-2,6-diazaspiro[3.3]heptan-6-yl]-1-[(5-methoxy-2-pyridyl)sulfonyl]-2-oxo-indoline-5-carbonitrile] were, in that order, 1 to 10 nM and “+++ (>75)”.
For `COc1ccc(S(=O)(=O)N2C(=O)C(c3cc(OC)ccc3OC)(N3CC4(CN(C5CCN(C)CC5)C4)C3)c3cc(C#N)ccc32)nc1` (racemic) [Example 21, (±)-3-(2,5-dimethoxyphenyl)-1-[(5-methoxy-2-pyridyl)sulfonyl]-3-[2-(1-methyl-4-piperidyl)-2,6-diazaspiro[3.3]heptan-6-yl]-2-oxo-indoline-5-carbonitrile], the Ki in experiment [1] is less than 1 nM. Also, the “Ki(h-V1a)/ Ki(h-V1b)” value in experiment [2] was “+ (10-<25)”.
In turn, `COc1ccc(S(=O)(=O)N2C(=O)C(c3cccnc3OC)(N3CC4(CN(C5CCN(C)CC5)C4)C3)c3cc(C#N)ccc32)nc1` (racemic) [Example 22, (±)-3-(2-methoxy-3-pyridyl)-1-[(5-methoxy-2-pyridyl)sulfonyl]-3-[2-(1-methyl-4-piperidyl)-2,6-diazaspiro[3.3]heptan-6-yl]-2-oxo-indoline-5-carbonitrile] returned a Ki in experiment [1] of 1 to 10 nM. The “Ki(h-V1a)/ Ki(h-V1b)” value in experiment [2] is listed as “+ (10-<25)”.
In the same order, the values of `COc1ccc(S(=O)(=O)N2C(=O)C(c3ccccc3OC)(N3CC4(CC(N5CCN(C)CC5)C4)C3)c3cc(C#N)ccc32)nc1` (racemic) [Example 26, (±)-3-(2-methoxyphenyl)-1-[(5-methoxy-2-pyridyl)sulfonyl]-3-[2-(4-methylpiperazin-1-yl)-6-azaspiro[3.3]heptan-6-yl]-2-oxo-indoline-5-carbonitrile] are 1 to 10 nM and “++ (25-75)”.
The like results for `CCOc1ncccc1C1(N2CC3(CC(N4CCN(C)CC4)C3)C2)C(=O)N(S(=O)(=O)c2ccc(OC)cn2)c2ccc(C#N)cc21` (racemic) [Example 27, (±)-3-(2-ethoxy-3-pyridyl)-1-[(5-methoxy-2-pyridyl)sulfonyl]-3-[2-(4-methylpiperazin-1-yl)-6-azaspiro[3.3]heptan-6-yl]-2-oxo-indoline-5-carbonitrile] were, in that order, 1 to 10 nM and “+++ (>75)”.
In the same order, the values of `CCOc1ccc(OC)cc1C1(N2CC3(CC(N4CCN(C5COC5)CC4)C3)C2)C(=O)N(S(=O)(=O)c2ccc(OC)cn2)c2ccc(C#N)cc21` (racemic) [Example 28, (±)-3-(2-ethoxy-5-methoxy-phenyl)-1-[(5-methoxy-2-pyridyl)sulfonyl]-3-[2-[4-(oxetan-3-yl)piperazin-1-yl]-6-azaspiro[3.3]heptan-6-yl]-2-oxo-indoline-5-carbonitrile] are 1 to 10 nM and “+++ (>75)”.
Take `COc1ccc(S(=O)(=O)N2C(=O)C(c3cccnc3C(C)(F)F)(N3CC4(CN(C5CCN(C)CC5)C4)C3)c3cc(C#N)ccc32)nc1` (racemic) [Example 30, (±)-3-[2-(1,1-difluoroethyl)-3-pyridyl]-1-[(5-methoxy-2-pyridyl)sulfonyl]-3-[2-(1-methyl-4-piperidyl)-2,6-diazaspiro[3.3]heptan-6-yl]-2-oxo-indoline-5-carbonitrile]: the Ki in experiment [1] was 1 to 10 nM. For the same molecule, in experiment [2], the “Ki(h-V1a)/ Ki(h-V1b)” value was “+ (10-<25)”.
In the same order, the values of `CCOc1ccc(OC)cc1C1(N2CC3(CN(C4CCN(C)CC4)C3)C2)C(=O)N(S(=O)(=O)c2ccc(OC)cn2)c2ccc(C#N)cc21` (single isomer, unassigned; (+)) [Example 1A, (+)-3-(2-ethoxy-5-methoxy-phenyl)-1-[(5-methoxy-2-pyridyl)sulfonyl]-3-[2-(1-methyl-4-piperidyl)-2,6-diazaspiro[3.3]heptan-6-yl]-2-oxo-indoline-5-carbonitrile] are less than 1 nM and “+++ (>75)”.
The like results for `CCOc1ncccc1C1(N2CC3(CN(C4CCN(C)CC4)C3)C2)C(=O)N(S(=O)(=O)c2ccc(OC)cn2)c2ccc(C#N)cc21` (single isomer, unassigned; (+)) [Example 9A, (+)-3-(2-ethoxy-3-pyridyl)-1-[(5-methoxy-2-pyridyl)sulfonyl]-3-[2-(1-methyl-4-piperidyl)-2,6-diazaspiro[3.3]heptan-6-yl]-2-oxo-indoline-5-carbonitrile] were, in that order, less than 1 nM and “+++ (>75)”.
In the same order, the values of `CCOc1ccc(OC)cc1C1(N2CC3(CN(C4CCN(C5COC5)CC4)C3)C2)C(=O)N(S(=O)(=O)c2ccc(OC)cn2)c2ccc(C#N)cc21` (single isomer, unassigned; (+)) [Example 11, (+)-3-(2-ethoxy-5-methoxyphenyl)-1-((5-methoxypyridin-2-yl)sulfonyl)-3-(6-(1-(oxetan-3-yl)piperidin-4-yl)-2,6-diazaspiro[3.3]heptan-2-yl)-2-oxoindoline-5-carbonitrile] are less than 1 nM and “+++ (>75)”.
The molecule `CCOc1ccc(OC)cc1C1(N2CC3(CC(N4CCN(C)CC4)C3)C2)C(=O)N(S(=O)(=O)c2ccc(OC)cn2)c2ccc(C#N)cc21` (single isomer, unassigned; (+)) [Example 17B, (+)-3-(2-ethoxy-5-methoxy-phenyl)-1-[(5-methoxy-2-pyridyl)sulfonyl]-3-[2-(4-methylpiperazin-1-yl)-6-azaspiro[3.3]heptan-6-yl]-2-oxo-indoline-5-carbonitrile] came in with a Ki in experiment [1] of less than 1 nM. Moreover, the “Ki(h-V1a)/ Ki(h-V1b)” value in experiment [2] is listed as “+++ (>75)”.
In the same order, the values of `COc1ccc(S(=O)(=O)N2C(=O)C(c3ccccc3OC)(N3CC4(CN(C5CCN(C)CC5)C4)C3)c3cc(C#N)ccc32)nc1` (single isomer, unassigned; (+)) [Example 18A, (+)-3-(2-methoxyphenyl)-1-[(5-methoxy-2-pyridyl)sulfonyl]-3-[2-(1-methyl-4-piperidyl)-2,6-diazaspiro[3.3]heptan-6-yl]-2-oxo-indoline-5-carbonitrile] are less than 1 nM and “+ (10-<25)”.
In the same order, the values of `COc1ccc(S(=O)(=O)N2C(=O)C(c3ccccc3OC)(N3CC4(CN(C5CCN(C6COC6)CC5)C4)C3)c3cc(C#N)ccc32)nc1` (single isomer, unassigned; (+)) [Example 23, (+)-3-(2-methoxyphenyl)-1-[(5-methoxy-2-pyridyl)sulfonyl]-3-[2-[1-(oxetan-3-yl)-4-piperidyl]-2,6-diazaspiro[3.3]heptan-6-yl]-2-oxo-indoline-5-carbonitrile] are 1 to 10 nM and “+ (10-<25)”.
The like results for `CCOc1ccc(OC)cc1C1(N2CC3(CN(c4ccnc(C)c4)C3)C2)C(=O)N(S(=O)(=O)c2ccc(OC)cc2OC)c2ccc(C#N)cc21` (single isomer, unassigned; (+)) [Example 24, (+)-1-(2,4-dimethoxyphenyl)sulfonyl-3-(2-ethoxy-5-methoxy-phenyl)-3-[2-(2-methyl-4-pyridyl)-2,6-diazaspiro[3.3]heptan-6-yl]-2-oxo-indoline-5-carbonitrile] were, in that order, 10 to 100 nM and “+++ (>75)”.
In turn, `CCOc1ccc(OC)cc1C1(N2CC3(CN(c4ccnc(C)c4)C3)C2)C(=O)N(S(=O)(=O)c2ccc(OC)cn2)c2ccc(C#N)cc21` (single isomer, unassigned; (+)) [Example 25, (+)-3-(2-ethoxy-5-methoxy-phenyl)-1-[(5-methoxy-2-pyridyl)sulfonyl]-3-[2-(2-methyl-4-pyridyl)-2,6-diazaspiro[3.3]heptan-6-yl]-2-oxo-indoline-5-carbonitrile] showed a Ki in experiment [1] of less than 1 nM. Further, the “Ki(h-V1a)/ Ki(h-V1b)” value in experiment [2] is on record as “+++ (>75)”.
